The values below come from EP4692079A1, “CYP11A1 INHIBITOR AND USE THEREOF” (priority 2023, dated 2024).

The term IC50 denotes the concentration needed to halve the response being measured. Usually AUC(0-t) stands for exposure summed from dosing to a finite time, without extrapolation to infinity. A high value points to more exposure. By half-life is commonly meant the time needed for the level to fall by half in the phase considered. Read a low half-life as rapid decline. The clearance is a measure of how efficiently the substance is removed, as volume per time.

The structures appear in SMILES notation. Where two headings read alike, the source gives them in different places.

Data set [1] concerns testosterone level in NCI-H295R cells. The data set can be described thus: cells. It counts as cell-based. Particulars: Homo sapiens, NCI-H295R, 72 h; for IC50: read-out: Testosterone level in H295R (Elisa) IC50 nM. The procedure:
The purpose of the experimental study was intended to detect the testosterone level in the NCI-H295R cells by adopting the Enzyme linked immunosorbent assay (ELISA), so as to evaluate the inhibitory effects of the compounds on the testosterone level in the NCI-H295R cells.
The H295R cells were purchased from ATCC, the cell complete medium contained DMEM: F12+ 10% FBS +0.00625 mg/ml insulin +0.00625 mg/ml transferrin+6.25 ng/ml selenium +1.25 mg/ml BSA+0.00535 mg/ml linoleic acid, and the cells were cultured in a 37°C, 5% CO2 incubator. The cells in the exponential growth phase were collected, and cultured in a cytokine-free medium (phenol red 1640-free +1% PS+10% css FBS+1.25 mg/ml BSA +0.00625 mg/ml insulin + 0.00625 mg/ml transferrin+6.25 ng/ml selenium+0.00535 mg/ml linoleic acid) for three days. The cells in the exponential growth phase were collected on the third day. The cell suspension was adjusted with a cytokine-free medium to a corresponding concentration and plated at 60000 cells/well, with the volume being 90 µL/well. Subsequently, 10 µL of the compounds at different concentrations was added and the plate was incubated in a CO2 incubator for three days. After the incubation was completed, according to the operation instructions for testosterone Elisa kit (Beyotime, PT872), 50 µL of the cell culture supernatant was collected from each well and centrifuged at 500 g for 5 min at room temperature and then the resulting supernatant was collected. The samples were added to the corresponding wells at 25 µl/well, and then formulated horseradish peroxidase labelled testosterone was added at 75 µl/well. The mixture was fully mixed for 10 seconds. The reaction wells were sealed with a plate-sealing film (white) and the mixture was incubated at room temperature in the dark for 120 min. The plate was washed three times with a volume of 300 µl per well, and then placed onto thick absorbent paper and dried. Chromogenic reagent TMB solution was added at 100 µl/well. The reaction wells were sealed with a plate-sealing film (white) and the mixture was incubated at room temperature in the dark for 15-20 min. Subsequently, a termination solution was added at 50 µl/well, and after the mixture was fully mixed, the absorbance value OD450 was immediately measured. The absorbance readings were processed using Graphpad Prim 8.0 software and S-shaped concentration curves were plotted and the IC50 values were calculated using a four-parameter non-linear regression model.

Data set [2] concerns pregnenolone level in NCI-H295R cells. Nature of the data set: cells. It counts as cell-based. Particulars: Homo sapiens, 72 h; for inhibition at 0.1 µM: read-out: Pregnenolone level in H295R (Elisa) inh.% 100 nM; for inhibition at 1 µM: read-out: Pregnenolone level in H295R (Elisa) inh.% 1000 nM; for IC50: read-out: Pregnenolone level in H295R (Elisa) IC50 nM. The procedure:
2. The purpose of the experimental study was intended to detect the pregnenolone level in the NCI-H295R cells by adopting the Enzyme linked immunosorbent assay (ELISA), so as to evaluate the inhibitory effects of the compounds on the pregnenolone level in the NCI-H295R cells.
The H295R cells were purchased from ATCC (CRL-2128), the cell complete medium contained DMEM: F12+ 10% FBS +0.00625 mg/ml insulin+0.00625 mg/mL transferrin+6.25 ng/mL selenium+1.25 mg/mL BSA+0.00535 mg/mL linoleic acid, and the cells were cultured in a 37°C, 5% CO2 incubator. The cells in the exponential growth phase were collected, and cultured in a cytokine-free medium (phenol red 1640-free +1% PS+10% css FBS+1.25 mg/mL BSA +0.00625 mg/mL insulin+0.00625 mg/mL transferrin+6.25 ng/mL selenium+0.00535 mg/mL linoleic acid) for three days. The cells in the exponential growth phase were collected on the third day. The cell suspension was adjusted with a cytokine-free medium to a corresponding concentration and plated at 60000 cells/well, with the volume being 90 µL/well. Subsequently, 10 µL of the compounds at different concentrations was added and the plate was incubated in a CO2 incubator for three days. After the incubation was completed, the cell culture supernatant was collected and centrifuged at 2°C-8°C at 800×g for 10 min. The resulting supernatant was collected. Determination was carried out according to the operation instructions for pregnenolone Elisa kit (Antibodies-A73791), and the OD450 signal was read.
2.1 Standard curve plotting. The standard concentration was taken as the abscissa and the OD450 value as the ordinate, the coordinate points of various standards were connected with a smooth line and a curve was fitted according to the four parameter logistic (4-PL) method.
2.2 Sample quantification: The corresponding concentration (CONC) of testosterone/pregnenolone in the sample was calculated using the absorbance value of the sample and the standard curve. According to formula (1), the inhibition rate of the compound at various concentrations was calculated, and S-shaped concentration curves were plotted and the IC50 values (i.e., concentration of the compound at which the inhibition rate was 50%) were calculated using a three parameter non-linear regression model in Graphpad Prim 8.0 software. CONC cpd was the concentration of the treated group, and CONC ctrl was the average concentration value of the solvent control group. Inhibition rate% = 100%−CONCcpd /CONCctrl × 100% [formula] Table 3 Inhibitory effects of compounds on pregnenolone level in NCI-H295R cells

A short description of data set [3]: Pharmacokinetic test in rats. The class given is in vivo. To be noted: rat, male SD rats, plasma. As to the method: 3.1 Experimental animals: Male SD rats (about 220 g, 6-8 weeks old, 6 rats/compound) were purchased from Chengdu Dossy Experimental Animals Co., Ltd.
3.2 Experimental design: On the day of the experiment, the SD rats were randomly grouped by body weight. […] Table 4 Administration information
Before and after the administration, 0.1 ml of blood was taken from the orbit of the animals under isoflurane anaesthesia and placed in an EDTAK2 centrifuge tube. The blood was centrifuged at 5000 rpm and 4°C for 10 min to collect plasma. […] Before analysis and detection, all samples were stored at -80°C. Table 5 Pharmacokinetic parameters of test compounds in plasma of rats

Data set [4] is described as follows: Pharmacokinetic test in mice. Particulars: mouse, male ICR mice, plasma; for Vd: read-out: Vdss. It counts as in vivo. The procedure:
4.1. Experimental animals: Male ICR mice, 20-25 g, 6 mice/compound, were purchased from Chengdu Dossy Experimental Animals Co., Ltd.
4.2 Experimental design: on the day of the experiment, the ICR mice were randomly grouped according to their body weights. […] Table 6 Administration information
Before and after administration, 0.06 mL of blood was taken from the orbit under isoflurane anaesthesia and placed in an EDTAK2 centrifuge tube. The tube was centrifuged at 5000 rpm at 4°C for 10 min, and plasma was collected. […] Before analysis and detection, all samples were stored at -80°C, and the samples were quantitatively analysed by LC-MS/MS.

The mark [5] stands for this setting: read-out: Testosterone level in H295R (Elisa) inh.% 100 nM, 100 nM compound, NCI-H295R cells, three days incubation.
The mark [6] stands for this setting: read-out: Testosterone level in H295R (Elisa) inh.% 1000 nM, 1000 nM compound, NCI-H295R cells, three days incubation.
Setting [7] is: read-out: Testosterone level in H295R (Elisa) inh.% 100 nM.
[8] abbreviates: read-out: Testosterone level in H295R (Elisa) inh.% 1000 nM.
Where [9] appears, read: po, intragastric administration (10 mg/kg).
The mark [10] stands for this setting: intravenous administration (2.5 mg/kg).

Turning to `O=C(OC1CC1)N1CCC(COc2coc(CN3Cc4ccc(OC5CC5)cc4C3)cc2=O)CC1` [Compound 27], the IC50 in data set [1] was 50.1 nM. Besides, the inhibition at 0.1 µM worked out at 78% in data set [1] (setting [5]) and 65.5% in data set [2]. The inhibition at 1 µM came to 68% in data set [1] (setting [6]) and 67.5% in data set [2].
As for `[2H]C([2H])([2H])C(=O)N[C@H]1CC[C@H](/C=C/c2coc(CN3Cc4ccc(C(F)(F)F)cc4C3)cc2=O)CC1` [Compound 80], the inhibition at 0.1 µM in data set [1] (setting [5]) was determined as 71%; in data set [2], 38.1%. Further, the results for the inhibition at 1 µM in data set [1] (setting [6]) and in data set [2] were 84% and 59.1%, respectively. In addition, in data set [2], the IC50 came out at 190 nM.
Take `O=C(N[C@H]1CC[C@H](CCc2coc(CN3Cc4ccc(C(F)(F)F)cc4C3)cc2=O)CC1)C1CC(F)(F)C1` [Compound 95]: the results for the inhibition at 0.1 µM in data set [1] (setting [5]) and in data set [2] were 57% and 50%, respectively. The inhibition at 1 µM was determined as 81% in data set [1] (setting [6]) and 66% in data set [2].
Take `C=C1CC(C(=O)N[C@H]2CC[C@H](/C=C/c3coc(CN4Cc5ccc(C(F)(F)F)cc5C4)cc3=O)CC2)C1` [Compound 116]: the values for the inhibition at 0.1 µM in data set [1] (setting [5]) and in data set [2] were 60% and 48%, respectively. Moreover, the inhibition at 1 µM is 66% in data set [1] (setting [6]) and 75% in data set [2].
Turning to `Cc1nc(C(=O)N[C@H]2CC[C@H](/C=C/c3coc(CN4Cc5ccc(C(F)(F)F)cc5C4)cc3=O)CC2)co1` [Compound 84], the IC50 in data set [2] was determined as 121 nM.
As to `COC1CN(CC(=O)N2CCC(/C=C/c3coc(CN4Cc5ccc(C(F)(F)F)cc5C4)cc3=O)CC2)C1` [Compound 18], in data set [1], the IC50 was found to be 100 nM. The inhibition at 0.1 µM in data set [1] (setting [5]) amounted to 80.8%; in data set [2], 40.7%. The values for the inhibition at 1 µM in data set [1] (setting [6]) and in data set [2] were 92.5% and 50.5%, respectively.
Turning to `Cn1cc(C(=O)N[C@H]2CC[C@H](COc3coc(CN4Cc5ccc(C(F)(F)F)cc5C4)cc3=O)CC2)cn1` [Compound 35], the inhibition at 0.1 µM in data set [1] (setting [7]) worked out at 72.8%. Further, the inhibition at 1 µM in data set [1] (setting [8]) stood at 75.5%. The AUC(0-t) was 18300 ng·h/mL in data set [3] (setting [9]), 9100 ng·h/mL in data set [3] (setting [10]), 24200 ng·h/mL in data set [4] (setting [9]) and 12500 ng·h/mL in data set [4] (setting [10]). Moreover, the half-life in data set [3] (setting [9]) is 2.84 h; in data set [3] (setting [10]), 2.71 h; in data set [4] (setting [9]) it was 2.85 h; in data set [4] (setting [10]) it was 2.68 h. The clearance in data set [3] (setting [10]) was determined as 4.66 mL/min/kg; in data set [4] (setting [10]), 3.34 mL/min/kg. For the same compound, the Vd in data set [3] (intravenous administration (2.5 mg/kg), read-out: Vdss) stood at 0.788 L/kg; in data set [4] (setting [10]), 0.557 L/kg.
For `[2H]C([2H])([2H])C(=O)N[C@H]1CC[C@H](COc2coc(CN3Cc4ccc(C(F)(F)F)cc4C3)cc2=O)CC1` [Compound 33], in data set [1], the IC50 worked out at 68 nM. In data set [3] (setting [9]), this compound had an AUC(0-t) of 19600 ng·h/mL and a half-life of 2.04 h. Also, in data set [4] (setting [9]), the AUC(0-t) was 8430 ng·h/mL and the half-life was 2.45 h. In data set [4] (setting [10]), the AUC(0-t) is 2090 ng·h/mL, the clearance amounted to 19.9 mL/min/kg, the half-life is 0.908 h and the Vd is 1.19 L/kg.
On to `O=C(N[C@H]1CC[C@H](/C=C/c2coc(CN3Cc4ccc(C(F)(F)F)cc4C3)cc2=O)CC1)[C@@H]1CC1(F)F` [Compound 89], for which the inhibition at 0.1 µM in data set [1] (setting [7]) came out at 75%. The inhibition at 1 µM in data set [1] (setting [8]) turned out to be 87%. In data set [2], the inhibition at 0.1 µM is 41.6% and the inhibition at 1 µM came out at 64.9%. In data set [4] (setting [9]), this compound had an AUC(0-t) of 52500 ng·h/mL and a half-life of 8.11 h. In data set [4] (setting [10]), the AUC(0-t) came to 8460 ng·h/mL, the clearance is 4.9 mL/min/kg, the half-life was 5.1 h and the Vd was 1.63 L/kg.
`O=C(N[C@H]1CC[C@H](COc2coc(CN3Cc4ccc(C(F)(F)F)cc4C3)cc2=O)CC1)C1CC1` [Compound 15]: the IC50 in data set [1] turned out to be 13 nM. In data set [1] (setting [5]), the inhibition at 0.1 µM is 51%. The inhibition at 1 µM in data set [1] (setting [6]) was found to be 84.2%. Moreover, the IC50 in data set [2] amounted to 382 nM. Besides, in data set [4] (setting [9]), the AUC(0-t) worked out at 25400 ng·h/mL and the half-life is 3.19 h. Also, in data set [4] (setting [10]), the AUC(0-t) is 6700 ng·h/mL, the clearance was found to be 6.21 mL/min/kg, the half-life is 3.54 h and the Vd is 1.61 L/kg.
Take `O=C(N[C@H]1CC[C@H](/C=C/c2coc(CN3Cc4ccc(C(F)(F)F)cc4C3)cc2=O)CC1)[C@H]1CC1(F)F` [Compound 90]: in data set [1], the IC50 was found to be 73 nM. Further, the inhibition at 0.1 µM in data set [1] (setting [7]) worked out at 80%. In data set [1] (setting [8]), the inhibition at 1 µM was determined as 85%. Besides, in data set [2], the IC50 is 119 nM, the inhibition at 0.1 µM worked out at 43.4% and the inhibition at 1 µM was found to be 67%. Further, in data set [4] (setting [9]), the exposure AUC(0-t) stood at 40600 ng·h/mL and the half-life is 6.36 h. In addition, in data set [4] (setting [10]), the AUC(0-t) turned out to be 10600 ng·h/mL, the clearance was 3.67 mL/min/kg, the half-life is 6.73 h and the Vd amounted to 1.73 L/kg.
